Values of other authors in patent US20040116329A1, “Inhibition of proteasomes to prevent restenosis” (priority 2004, published 2004).
Like-named read-outs stand apart in the source and are kept apart here.

Experiments:
[1] = test system: apoptosis; settings: through stabilization of proteins critical for cell cycle progression and control of apoptosis
[2] = test system: various tumors
[3] = given orally
[4] = test system: SMC; settings: in vitro
[5] = test system: neointimal accumulation; settings: in vivo, rat carotid artery injury model
[6] = test system: apoptosis; settings: biologically relevant concentrations
[7] = test system: SMC; settings: in vitro; remark: listed apart in the source

Compound	induction of apoptosis [1]	activity in tumor treatment in combination ([2]; in combination with standard chemotherapeutic agents or radiation)	volume of various tumors ([2]; in vivo)	major side effects [3]	SMC proliferation [4]	neointimal accumulation [5]	induction of apoptosis [6]	platelet-derived growth factor-stimulated SMC migration [7]
CC(C)C[C@H](NC(=O)[C@H](Cc1ccccc1)NC(=O)c1cnccn1)B(O)O [LDP-341]	induce apoptosis	appears very active	effective in reducing the volume of various tumors	gastrointestinal in nature	–	–	–	–
CC(=O)O[C@H]1C(=O)[C@@]2(C)[C@H]([C@H](OC(=O)c3ccccc3)[C@]3(O)C[C@H](OC(=O)[C@H](O)[C@@H](NC(=O)c4ccccc4)c4ccccc4)C(C)=C1C3(C)C)[C@]1(OC(C)=O)CO[C@@H]1C[C@@H]2O [paclitaxel]	–	–	–	–	inhibited	inhibited neointimal accumulation	does not appear to induce apoptosis	inhibited
